Reference: ChEMBL document CHEMBL5034015, “Structure-Based Optimization of 3-Phenyl-N-(2-(3-phenylureido)ethyl)thiophene-2-sulfonamide Derivatives as Selective Mcl-1 Inhibitors” (J Med Chem, 2021)
Activity calls are given as the source filed them.

How the values were obtained:
HeLa = experiment: cells; settings: Homo sapiens, 48 h
Description: Cytotoxicity against human HeLa cells assessed as inhibition of cell growth incubated for 48 hrs by CCK8 assay

[1] = biological target: T1, Apoptosis regulator Bcl-2 (Homo sapiens, UniProt P10415); experiment: Binding affinity to full length human Bcl-2 expressed in Escherichia coli BL21 (DE3) at up to 100 uM preincubated for 30 mins followed by 5-FAM-QEDIIIINIARHLAQVGDSMD-RSIPPG tracer addition and measured after 20 mins by fluorescence polarization assay; settings: dose microM <=100, time 50.0 min
[2] = biological target: T2, Induced myeloid leukemia cell differentiation protein Mcl-1 (Homo sapiens, UniProt Q07820); experiment: Binding affinity to full length human MCL1 expressed in Escherichia coli BL21 (DE3) assessed as inhibition constant preincubated for 30 mins followed by 5-FAM-QEDIIIINIARHLAQVGDSMD-RSIPPG tracer addition and measured after 20 mins by fluorescence polarization assay
RS4-11 = experiment: cells; settings: Homo sapiens, RS4-11, 48 h
Description: Cytotoxicity against human RS4-11 cells assessed as inhibition of cell growth incubated for 48 hrs by CCK8 assay

Bcl-2-like protein 1 [3] = biological target: T3, Bcl-2-like protein 1 (Homo sapiens, UniProt Q07817); experiment: Binding affinity to full length human Bcl-xl expressed in Escherichia coli BL21 (DE3) at up to 100 uM preincubated for 30 mins followed by 5-FAM-QEDIIIINIARHLAQVGDSMD-RSIPPG tracer addition and measured after 20 mins by fluorescence polarization assay; settings: dose microM <=100, time 50.0 min
HEK-293T = experiment: Cytotoxicity against HEK293T cells assessed as reduction in cell viability incubated for 48 hrs by CCK8 assay; settings: Homo sapiens
HL-60 = experiment: cells; settings: Homo sapiens, HL-60, 48 h
Description: Cytotoxicity against human HL-60 cells assessed as inhibition of cell growth incubated for 48 hrs by CCK8 assay

[4] = biological target: T2, Induced myeloid leukemia cell differentiation protein Mcl-1; experiment: Binding affinity to full length human MCL1 expressed in Escherichia coli BL21 (DE3) at 100 uM preincubated for 30 mins followed by 5-FAM-QEDIIIINIARHLAQVGDSMD-RSIPPG tracer addition and measured after 20 mins by fluorescence polarization assay relative to control; settings: time 50.0 min
[5] = biological target: T1, Apoptosis regulator Bcl-2; experiment: Binding affinity to full length human Bcl-2 expressed in Escherichia coli BL21 (DE3) at 100 uM preincubated for 30 mins followed by 5-FAM-QEDIIIINIARHLAQVGDSMD-RSIPPG tracer addition and measured after 20 mins by fluorescence polarization assay relative to control; settings: time 50.0 min
Bcl-2-like protein 1 [6] = biological target: T3, Bcl-2-like protein 1; experiment: Binding affinity to full length human Bcl-xl expressed in Escherichia coli BL21 (DE3) at 100 uM preincubated for 30 mins followed by 5-FAM-QEDIIIINIARHLAQVGDSMD-RSIPPG tracer addition and measured after 20 mins by fluorescence polarization assay relative to control; settings: time 50.0 min
[7] = biological target: T2, Induced myeloid leukemia cell differentiation protein Mcl-1; experiment: Binding affinity to full length human MCL1 expressed in Escherichia coli BL21 (DE3) at up to 100 uM preincubated for 30 mins followed by 5-FAM-QEDIIIINIARHLAQVGDSMD-RSIPPG tracer addition and measured after 20 mins by fluorescence polarization assay; settings: dose microM <=100, time 50.0 min

T3 sequence (Q07817 whole entry): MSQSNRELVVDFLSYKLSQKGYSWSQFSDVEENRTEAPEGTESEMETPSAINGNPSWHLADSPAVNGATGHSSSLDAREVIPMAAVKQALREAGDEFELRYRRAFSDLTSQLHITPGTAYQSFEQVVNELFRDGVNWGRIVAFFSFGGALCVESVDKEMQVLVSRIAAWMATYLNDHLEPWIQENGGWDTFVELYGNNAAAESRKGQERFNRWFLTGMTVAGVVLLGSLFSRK
T1 sequence (P10415 whole entry): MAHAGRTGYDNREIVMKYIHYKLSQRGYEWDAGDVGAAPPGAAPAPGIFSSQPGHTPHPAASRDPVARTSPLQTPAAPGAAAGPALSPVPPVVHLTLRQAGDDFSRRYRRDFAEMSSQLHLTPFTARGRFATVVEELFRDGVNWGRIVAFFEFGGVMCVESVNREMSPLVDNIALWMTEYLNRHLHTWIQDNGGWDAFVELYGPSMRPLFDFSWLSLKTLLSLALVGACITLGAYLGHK
T2 sequence (Q07820 whole entry): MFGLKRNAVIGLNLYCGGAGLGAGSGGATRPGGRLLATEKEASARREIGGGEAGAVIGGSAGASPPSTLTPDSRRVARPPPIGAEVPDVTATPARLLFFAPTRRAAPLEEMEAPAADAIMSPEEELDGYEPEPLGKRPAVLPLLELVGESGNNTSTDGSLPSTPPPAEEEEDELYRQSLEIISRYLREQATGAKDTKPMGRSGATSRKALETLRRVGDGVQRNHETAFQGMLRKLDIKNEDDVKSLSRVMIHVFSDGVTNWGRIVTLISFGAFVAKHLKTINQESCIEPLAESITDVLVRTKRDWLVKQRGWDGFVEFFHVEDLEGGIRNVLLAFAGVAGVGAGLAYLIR

| IC50 (HeLa) [µM] | Activity [1] | Ki [2] [µM] | IC50 (RS4-11) [µM] | Activity (Bcl-2-like protein 1 [3]) | IC50 (HL-60) [µM] | inhibition [4] [%] | inhibition [5] [%] | inhibition (Bcl-2-like protein 1 [6]) [%] | Activity [7] | Compound | IC50 (HEK-293T) [µM] |
| --- | --- | --- | --- | --- | --- | --- | --- | --- | --- | --- | --- |
| 6.8 | inactive | 1.5 | 5.1 | inactive | 2.9 |  |  |  |  | Cc1ccc(-c2ccsc2S(=O)(=O)NCCNC(=S)Nc2ccc([N+](=O)[O-])cc2)c(Oc2ccc(O)c(O)c2)c1 | 8.2 |
| > 20 | inactive | 4.6 | > 50 | inactive | > 50 |  |  |  |  | COc1ccc(NC(=O)NCCNS(=O)(=O)c2ccc(-c3ccccc3Oc3ccc([N+](=O)[O-])cc3)s2)cc1 | > 20 |
| 14.8 |  |  | 6.8 |  | 8.1 | 95 | 33 | 32 |  | O=C(Nc1ccc(F)cc1)N1CCN(S(=O)(=O)c2sccc2-c2ccccc2Oc2ccc(O)c(O)c2)CC1 | 15.5 |
| > 50 |  |  | > 50 |  | > 50 | 33 | 16 | 18 |  | COc1ccc(Oc2ccccc2-c2ccsc2S(=O)(=O)N2CCN(C(=S)Nc3ccc([N+](=O)[O-])cc3)CC2)cc1OC | > 20 |
| > 50 |  |  | > 50 |  | > 50 | 37 | 19 | 44 |  | COc1ccc(Oc2ccc([N+](=O)[O-])cc2-c2ccsc2S(=O)(=O)N2CCN(C(=O)Nc3ccc([N+](=O)[O-])cc3)CC2)cc1OC | > 20 |
| > 50 | inactive | 13 | > 50 | inactive | > 50 |  |  |  |  | COc1cccc(NC(=S)NCCNS(=O)(=O)c2ccc(-c3ccccc3Oc3ccc([N+](=O)[O-])cc3)s2)c1 | > 20 |
| > 50 |  |  | > 50 |  | > 50 | 26 | 16 | 27 |  | COc1ccc(Oc2ccc([N+](=O)[O-])cc2-c2ccsc2S(=O)(=O)N2CCN(C(=S)Nc3ccc([N+](=O)[O-])cc3)CC2)cc1OC | > 50 |
| > 50 | inactive | 11 | > 20 | inactive | 1.7 |  |  |  |  | COc1cccc(NC(=O)NCCNS(=O)(=O)c2ccc(-c3ccccc3OCc3ccccc3)s2)c1 | > 20 |
| > 20 |  |  | 14.9 |  | > 20 | 28 | 15 | 33 |  | COc1ccc(Oc2ccccc2-c2ccsc2S(=O)(=O)N2CCN(C(=O)Nc3ccc(F)cc3)CC2)cc1OC | > 50 |
| > 50 |  |  | > 50 |  | > 50 | 31 | 18 | 19 |  | COc1ccc(Oc2ccccc2-c2ccsc2S(=O)(=O)N2CCN(C(=O)Nc3cccc([N+](=O)[O-])c3)CC2)cc1OC | > 20 |
| > 50 |  |  | 7.5 |  | 5.5 | 20 | 2 | 3 |  | O=S(=O)(c1sccc1-c1ccccc1Oc1ccc(O)c(O)c1)N1CCN(C(=S)Nc2ccc(Cl)cc2)CC1 | > 50 |
| > 50 |  |  | > 50 |  | > 20 | 44 | 23 | 24 |  | COc1ccc(Oc2ccccc2-c2ccsc2S(=O)(=O)N2CCN(C(=O)Nc3cc(C(F)(F)F)cc(C(F)(F)F)c3)CC2)cc1OC | > 20 |
| 8 | inactive | 0.73 | 4.8 | inactive | 3.2 |  |  |  |  | Cc1ccc(-c2ccsc2S(=O)(=O)NCCNC(=S)Nc2cc(C(F)(F)F)cc(C(F)(F)F)c2)c(Oc2ccc(O)c(O)c2)c1 | 8 |
| 7 | inactive | 4.3 | > 50 | inactive | > 50 |  |  |  |  | O=S(=O)(NCCNC(=S)Nc1ccc(Cl)cc1)c1ccc(-c2ccccc2OCc2ccccc2)s1 | 12.1 |
| > 20 |  |  | 14.3 |  | 4.9 | 63 | 33 | 29 |  | O=C(Nc1ccc([N+](=O)[O-])cc1)N1CCN(S(=O)(=O)c2sccc2-c2ccccc2Oc2ccc(O)c(O)c2)CC1 | > 20 |
| 8.3 | inactive | 12 | 5.5 | inactive | 6.9 |  |  |  |  | COc1ccc(Oc2ccc(C(C)C)cc2-c2ccsc2S(=O)(=O)NCCNC(=S)Nc2cc(C(F)(F)F)cc(C(F)(F)F)c2)cc1OC | 10.2 |
| > 50 | inactive | 0.36 | 6.4 | inactive | 6.5 |  |  |  |  | CC(C)c1ccc(Oc2ccc(O)c(O)c2)c(-c2ccsc2S(=O)(=O)NCCNC(=O)Nc2cc(Cl)cc(Cl)c2)c1 | > 10 |
| > 20 | inactive | 13 | 9.1 | inactive | 6 |  |  |  |  | Cc1ccc(-c2ccsc2S(=O)(=O)NCCNC(=O)Nc2cccc([N+](=O)[O-])c2)c(Oc2ccc(O)c(O)c2)c1 | 6.8 |
| > 20 |  |  | 7.3 |  | 2.2 | 72 | 20 | 12 |  | O=S(=O)(c1sccc1-c1ccccc1Oc1ccc(O)c(O)c1)N1CCN(C(=S)Nc2cc(C(F)(F)F)cc(C(F)(F)F)c2)CC1 | > 20 |
| > 20 |  |  | 9.8 |  | 4.5 | 74 | 30 | 34 |  | O=C(Nc1cccc([N+](=O)[O-])c1)N1CCN(S(=O)(=O)c2sccc2-c2ccccc2Oc2ccc(O)c(O)c2)CC1 | > 20 |
| > 20 | inactive | 5.9 | 6.7 | inactive | 8.1 |  |  |  |  | O=C(NCCNS(=O)(=O)c1ccc(-c2ccccc2Oc2ccc([N+](=O)[O-])c([N+](=O)[O-])c2)s1)Nc1ccc(Cl)cc1 | > 20 |
| > 20 | inactive |  | 1.3 | inactive | 6.7 |  |  |  | inactive | COc1cccc(NC(=O)NCCNS(=O)(=O)c2ccc(-c3ccccc3Oc3ccc([N+](=O)[O-])c([N+](=O)[O-])c3)s2)c1 | 17.8 |
| > 50 |  |  | > 50 |  | > 50 | 22 | 17 | 20 |  | COc1ccc(Oc2ccccc2-c2ccsc2S(=O)(=O)N2CCN(C(=O)Nc3ccc([N+](=O)[O-])cc3)CC2)cc1OC | > 20 |
| 11.9 | inactive |  | 5.8 | inactive | 11.2 |  |  |  | inactive | COc1ccc(Oc2ccc(C(C)C)cc2-c2ccsc2S(=O)(=O)NCCNC(=S)Nc2ccc([N+](=O)[O-])cc2)cc1OC | 11.4 |
| > 20 | inactive |  | 9.4 | inactive | > 20 |  |  |  | inactive | COc1ccc(NC(=O)NCCNS(=O)(=O)c2ccc(-c3ccccc3OCc3cccc(O)c3)s2)cc1 | > 20 |
| > 20 | inactive | 1.6 | > 20 | inactive | > 50 |  |  |  |  | Cc1cc(C)cc(NC(=O)NCCNS(=O)(=O)c2ccc(-c3ccccc3Oc3ccc(N)cc3)s2)c1 | > 20 |
| > 50 | inactive |  | > 50 | inactive | 2.2 |  |  |  | inactive | Cc1cc(C)cc(NC(=O)NCCNS(=O)(=O)c2ccc(-c3ccccc3OCc3ccccc3)s2)c1 | > 20 |
| > 50 | inactive | 6 | > 20 | inactive | > 50 |  |  |  |  | COc1cccc(NC(=S)NCCNS(=O)(=O)c2sccc2-c2ccc(C)cc2Oc2ccc(O)c(O)c2)c1 | > 50 |
